Results as given in patent US20120165319A1, “INHIBITORS OF INTERLEUKIN-1 BETA CONVERTING ENZYME” (VERTEX PHARMACEUTICALS INCORPORATED, priority 1995, published 2012).
“And” between values parts separate entries of the source, which are not always exact repeats. Identical values can stand only once. Like-named read-outs stand apart in the source and are kept apart here.

Tests used:
[1] = test system: IL-1β, human peripheral blood mononuclear cells (PBMC); test: PBMC cell assay: IL-1β assay with human PBMC or enriched adherent mononuclear cells, LPS-stimulated; assay type: cell-based
In short: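 Buffy-coat human PBMC at 6×10^6 cells/ml, or adherent monocytes enriched by 1 h adherence (2.5−3.0×10^5 cells/well), are given 5–6 compound dilutions bracketing the ICE Ki (final DMSO 0.1%) plus LPS at a final 5 ng/ml. They are incubated 16–18 hr at 37 °C, 5% CO2, and supernatant mature IL-1β is measured by ELISA, with duplicate cultures and duplicate ELISAs.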

[2] = Pharmacokinetic studies in the mouse (i.v. clearance, plasma levels); assay type: in vivo; settings: mouse
Experimental: Pharmacokinetic Studies in the Mouse
Sample Preparation and Dosing
Compounds were dissolved in sterile TRIS solution (0.02M or 0.05M) at a concentration of 2.5 mg/ml. Where necessary to ensure a complete solution, the sample was first dissolved in a minimum of dimethylacetamide (maximum of 5% of total solution volume) then diluted with the TRIS solution.
The drug solution was administered to CD-1 mice (Charles River Laboratories—26-31 g) via the tail vein at a dose volume of 10 ml/kg giving a drug dose of 25 mg/kg.
Mice were dosed in groups of 5 for each timepoint (generally from 2 minutes to 2 hours) then at the appropriate time the animals were anaesthetised with halothane and the blood collected into individual heparinized tubes by jugular severance. The blood samples were cooled to 0° C. then the plasma separated and stored at −20° C. until assayed.
Drug concentration in the plasma samples were determined by HPLC analysis with UV or MS (ESP) detection. Reverse phase chromatography was employed using a variety of bonded phases from C1 to C18 with eluents composed of aqueous buffer/acetonitrile mixtures run under isocratic conditions.
Quantitation was by external standard methods with calibration curves constructed by spiking plasma with drug solutions to give concentrations in the range of 0.5 to 50 μg/ml.
Prior to analysis the plasma samples were deproteinated by the addition of acetonitrile, methanol, trichloroacetic acid or perchloric acid followed by centrifugation at 10,000 g for 10 minutes. Sample volumes of 20 μl to 50 μl were injected for analysis.
The drug was dissolved in sterile 0.02M Tris to give a 2.5 mg/ml solution which was administered to […] of 5 male CD-1 mice via the tail vein at a dose of 25 mg/kg. At each of the following timepoints: 2, 5, 10, 15, 20, 30, 45, 60, 90 and 120 minutes a group of animals was anaesthetised and the blood collected into heparinized tubes. After separation the plasma was stored at −20° C. until assayed.
Aliquots of plasma (150 μl) were treated with 5% perchloric acid (5 μl) then mixed by vortexing and allowed to stand for 90 minutes prior to centrifugation. The resulting supernatant was separated and 20 μl was injected for HPLC analysis.
Aliquots of plasma (100 μl) were diluted with acetonitrile (100 μl) then mixed by vortexing for 20 seconds before centrifugation for 10 minutes. The resulting supernatant was separated and 20 μl was injected for HPLC analysis.

[3] = test system: IL-1β production, LPS-challenged mice; test: In vivo acute assay for efficacy as anti-inflammatory agent: LPS-induced IL-1β production in mice; design: species or system mouse; settings: for inhibition at 50 mg/kg: Mus musculus, po, compound PO, read-out: percent inhibition of IL-1β production; for inhibition at 50 mg/kg / Inhibition of IL-1β Production, compound administered 0 hr relative to LPS challenge / Inhibition of IL-1β Production, compound administered +1 hr relative to LPS challenge / Inhibition of IL-1β Production, compound administered −1 hr relative to LPS challenge / Inhibition of IL-1β Production, compound administered −2 hr relative to LPS challenge: LPS challenged mice, 50 mg/kg; for Inhibition of IL-1β Production, compound administered 0 hr relative to LPS challenge / Inhibition of IL-1β Production, compound administered +1 hr relative to LPS challenge / Inhibition of IL-1β Production, compound administered −1 hr relative to LPS challenge / Inhibition of IL-1β Production, compound administered −2 hr relative to LPS challenge / POS Inhibition: PO; for Inhibition of IL-1β Production, compound administered 0 hr relative to LPS challenge / Inhibition of IL-1β Production, compound administered +1 hr relative to LPS challenge / Inhibition of IL-1β Production, compound administered −1 hr relative to LPS challenge / Inhibition of IL-1β Production, compound administered −2 hr relative to LPS challenge: * = values obtained in subsequent assays (Table 4); for IP % Inhibition / POS Inhibition: % inhibition of IL-β production, LPS-challenged mice, 50 mg/kg (Table 3)
In short: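 CD1 mice (n=6) were challenged with LPS 20 mg/kg IP and given compound IP in olive oil:DMSO:ethanol (90:5:5) 1 h after LPS, or at the time of challenge for some analogs. Blood was taken 7 h after LPS and serum IL-1β was measured by ELISA. Oral gavage at 50 mg/kg was also tested.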

[4] = Homo sapiens, PBMC, * = values obtained upon reassay
[5] = 0 h, administered 0 h relative to time of LPS challenge
[6] = 2 h, administered −2 h relative to time of LPS challenge
[7] = 1 h, administered +1 h relative to time of LPS challenge
[8] = 1 h, administered −1 h relative to time of LPS challenge
[9] = * = values obtained upon reassay

Compound	IC50 [1, 4] [µM]	inhibition at 50 mg/kg [3, 5] [%]	inhibition at 50 mg/kg [3, 6] [%]	IC50 ([1]; Homo sapiens, PBMC, Table 17) [µM]	also measured
COc1cc(C(=O)N[C@H]2CCC(=O)N3CCC[C@@H](C(=O)N[C@H](C=O)CC(=O)O)N3C2=O)cc(OC)c1OC [Compound 417, [3S(1S,9S)]3-[6,10-Dioxo-1,2,3,4,7,8,9,10-octahydro-9-(3,4,5-trimethoxybenzoylamino)-6H-pyridazino[1,2-a][1,2]diazepine-1-carboxamido]-4-oxobutanoic acid]	2	–	–	–	clearance ([2]; CD-1, plasma, iv, 25 mg/kg): 33 mL/min/kg
[3S(1S,9S)]3-[(6,10-Dioxo-9-(methanesulphonylamino)-1,2,3,4,7,8,9,10-octahydro-6H-pyridazino[1,2-a][1,2]diazepine-1-carboxamido]-5-(5-methyl-3-phenylisoxazoyloxy)-4-oxopentanoic acid [505 b]	–	–	–	–	IC50 ([1]; Table 18): 1.5 µM; Clearance Mouse, i.v. ([2]; i.v., Table 18): 161 mL/min/kg
CC(=O)Nc1ccc(C(=O)N[C@H]2CCC(=O)N3CCC[C@@H](C(=O)N[C@H](C=O)CC(=O)O)N3C2=O)cc1Cl [Compound 214l, [3S(1S,9S)]3-(9-(3-Chloro-4-acetamidobenzoyl)amino-6,10-dioxo-1,2,3,4,7,8,9,10-octahydro-6H-pyridazino[1,2-a][1,2]diazepine-1-carboxamido)-4-oxobutanoic acid]	–	54	0	1.9	–
CN(C)c1cccc(C(=O)N[C@H]2CCC(=O)N3CCC[C@@H](C(=O)N[C@H](C=O)CC(=O)O)N3C2=O)c1 [Compound 470]	0.5	36	0	–	–
O=C1C[C@H](NC(=O)[C@@H]2CCCN3C(=O)CC[C@H](NC(=O)C(=O)c4ccccc4)C(=O)N23)C(OCc2ccccc2)O1 (stereo partly drawn) [Compound 2001, [1S,9S(2RS,3S)]9-Benzoylformylamino-6,10-dioxo-1,2,3,4,7,8,9,10-octahydro-N-(2(R,S)-benzyloxy-5-oxotetrahydrofuran-3-yl)-6H-pyridazino[1,2-a][1,2]-diazepine-1-carboxamide]	1.8	58	64	–	Inhibition of IL-1β Production, compound administered 0 hr relative to LPS challenge [3]: ~57% and 58* %; Inhibition of IL-1β Production, compound administered +1 hr relative to LPS challenge [3]: ~54% and 55* %; Inhibition of IL-1β Production, compound administered −1 hr relative to LPS challenge [3]: ~62% and 62* %; Inhibition of IL-1β Production, compound administered −2 hr relative to LPS challenge [3]: ~63% and 64* %; inhibition at 50 mg/kg [3, 7]: 55%; inhibition at 50 mg/kg [3, 8]: 62%
O=C[C@H](CC(=O)O)NC(=O)[C@@H]1CCCN2C(=O)CC[C@H](NC(=O)c3ccc(NC(=O)Cc4ccccc4)cc3)C(=O)N12 [Compound 486, [3S(1S,9S)]3-{6,10-Dioxo-1,2,3,4,7,8,9,10-octahydro-9-[4-(phenylacetamido)benzamido]-6H-pyridazino[1,2-a][1,2]diazepine-1-carboxamido}-4-oxobutanoic acid]	0.48	15	19	–	IC50 [1, 9]: 0.57 µM
CC(C)OC(=O)C[C@H](NC(=O)[C@@H]1CCCN2C(=O)CC[C@H](NC(=O)c3ccccc3)C(=O)N12)C(OC(C)C)OC(C)C [Compound 2100d]	> 20	–	–	–	Inhibition of IL-1β Production, compound administered 0 hr relative to LPS challenge [3]: 52%; Inhibition of IL-1β Production, compound administered +1 hr relative to LPS challenge [3]: 26%; Inhibition of IL-1β Production, compound administered −1 hr relative to LPS challenge [3]: 35%; Inhibition of IL-1β Production, compound administered −2 hr relative to LPS challenge [3]: 42%
COC(=O)C[C@H](NC(=O)[C@@H]1CCCN2C(=O)CC[C@H](NC(=O)c3ccccc3)C(=O)N12)C(OC)OC [Compound 2100c]	> 20	–	–	–	Inhibition of IL-1β Production, compound administered 0 hr relative to LPS challenge [3]: 85%; Inhibition of IL-1β Production, compound administered +1 hr relative to LPS challenge [3]: 40%; Inhibition of IL-1β Production, compound administered −1 hr relative to LPS challenge [3]: 0%; Inhibition of IL-1β Production, compound administered −2 hr relative to LPS challenge [3]: 0%
O=C[C@H](CC(=O)O)NC(=O)[C@@H]1CCCN2C(=O)CC[C@H](NC(=O)c3cc4ccsc4s3)C(=O)N12 [Compound 442]	0.9	–	–	–	IP % Inhibition [3]: 0%; POS Inhibition [3]: 10%
O=C[C@H](CC(=O)O)NC(=O)[C@@H]1CCCN2C(=O)CC[C@H](NC(=O)c3ccc(Cl)cc3)C(=O)N12 [Compound 416]	1.2	–	–	–	IP % Inhibition [3]: 39%; POS Inhibition [3]: 52%
CC(C)CC(=O)Nc1ccc(C(=O)N[C@H]2CCC(=O)N3CCC[C@@H](C(=O)N[C@H](C=O)CC(=O)O)N3C2=O)cc1 [Compound 487, [3S(1S,9S)]3-{6,10-Dioxo-9-[4-(3-methylbutan-1-oylamino)benzamido]-1,2,3,4,7,8,9,10-octahydro-6H-pyridazino[1,2-a][1,2]diazepine-1-carboxamido}-4-oxobutanoic acid]	0.65	20	17	–	IC50 [1, 9]: 0.95 µM
O=C[C@H](CC(=O)O)NC(=O)CN1C(=O)[C@@H](NC(=O)c2cc(Cl)c(O)c(Cl)c2)CN(C(=O)CO)c2ccccc21 [Compound 662, (3S)-3-[(3S)-2-Oxo-3-(3,5-dichloro-4-hydroxybenzoyl)amino-5-(2-hydroxy)acetyl-2,3,4,5-tetrahydro-1H-1,5-benzodiazepine-1-acetylamino]-4-oxo-butyric acid]	–	75	41	1.8	–
O=C1C[C@H](NC(=O)[C@@H]2CCCN3C(=O)CC[C@H](NC(=O)c4ccccc4)C(=O)N23)[C@H](OCc2ccccc2)O1 [Compound 2100o, [1S,9S(2R,3S)]9-Benzoylamino-N-(2-benzyloxy-5-oxotetrahydrofuran-3-yl)-6,10-dioxo-1,2,3,4,7,8,9,10-octahydro-6H-pyridazino[1,2-a][1,2]diazepine-1-carboxamide]	–	68	31	1.15	inhibition at 50 mg/kg [3, 7]: 64%; inhibition at 50 mg/kg [3, 8]: 44%
O=C[C@H](CC(=O)O)NC(=O)CN1C(=O)[C@@H](NC(=O)c2ccccc2)CN(C(=O)CO)c2ccccc21 [Compound 668, (3S)-3-[(3S)-2-Oxo-3-benzoylamino-5-(2-hydroxy)acetyl-2,3,4,5-tetrahydro-1H-1,5-benzodiazepine-1-acetylamino]-4-oxo-butyric acid]	–	–	–	5.2	inhibition at 50 mg/kg [3, 7]: 53%
O=C1C[C@H](NC(=O)[C@@H]2CCCN3C(=O)CC[C@H](NC(=O)c4ccccc4)C(=O)N23)C(OCc2ccccc2)O1 (single isomer, unassigned) [Compound 2100n]	–	64	21	0.77	inhibition at 50 mg/kg [3, 7]: 73%; inhibition at 50 mg/kg [3, 8]: 9%
